# According to patent US8163804B2 (priority 2005, dated 2012):
# Where two headings read alike, the source gives them in different places.
# Assays:
# [1] = tested on: Common Straight Swift Butterfly (Parnara guttata); test: Control test on common straight swift butterfly of paddy rice, powder spray, number of insects after 20 days (Test Example 9); format: in vivo; conditions: 20 gai/10a; 20 days after spraying
# Excerpt: (§1) Control Test on Common Straight Swift Butterfly (Parnara guttata) and Sheath Blight (Rhizoctonia solani) of Paddy Rice
# (§2) A powder of a prescribed amount was sprayed on rice (cultivar: koshihikari) after 70 days from the transplantation (middle of May) Leaves on which Parnara guttata was parasitic before spraying were eliminated. After 20 days from spraying, the number of insects was examined for 100 stumps in each plot. Furthermore, 7 days before spraying, Rhizoctonia solani cultured on a bran medium was inoculated into the base of the plant. After 30 days from spraying, the number of infected stumps was examined for 100 stumps in each plot and the rate of infected stumps was calculated. In the Table, gai represents the amount of active ingredients (g).
# [2] = tested on: Rice Blast (Pyricularia oryzae); format: in vivo; conditions: in vivo
# [3] = tested on: Green Peach Aphid (Myzus persicae); format: in vivo; conditions: 3 ppm, foliar spray on eggplant, 5 days after spraying
# [4] = tested on: Scab (Venturia nashicola); test: Control test on scab of pear, spray, severity index after 14 days; format: in vivo; conditions: 50 ppm; 14 days after spraying
# Protocol: (§3) Control Test on Oriental Fruit Moth (Grapholita molesta) and Scab (Venturia nashicola) of Pear
# (§4) A liquid chemical which was prepared to the prescribed concentration was sufficiently sprayed on 17-year-old pears (cultivar: Hosui) (early June). After 40 days from spraying, the number of infected fruits due to Grapholita molesta was examined for all fruit in the plot, and the rate of infected fruit was calculated. Furthermore, after 14 days from spraying, infection of Venturia nashicola was examined by the degrees for optional 200 leaves in the plot and the severity index was calculated according to the following equation. Severity index=Z(number of infected leaves by the degrees×index)×100/(number of examined leaves×5)
# [5] = tested on: Sheath Blight (Rhizoctonia solani); test: Control test on sheath blight of paddy rice, powder spray, rate of infected stumps after 30 days; format: in vivo; conditions: 20 gai/10a; 30 days after spraying
# Excerpt: as §1, §2
# [6] = tested on: Small Brown Planthopper (Laodelphax striatellus); test: Insecticidal test on small brown planthopper, sprayed rice seedlings, mortality after 6 days; format: in vivo; conditions: 3 ppm, sprayed rice seedlings, 6 days after treatment
# Protocol: Insecticidal Test on Small Brown Planthopper (Laodelphax striatellus)
# A liquid chemical which was diluted and prepared to the prescribed concentration was sprayed on rice seedlings (cultivar: koshihikari), air-dried, and then 10 three-stage insects of Laodelphax striatellus were put into a glass test tube having a diameter of 3 cm and a height of 10 cm along with the seedlings. The test tube was cotton plugged. After 6 days from the treatment, the number of surviving insects was examined and the mortality was calculated (two replications of 10 insects per plot).
# [7] = tested on: Powdery Mildew (Sphaerotheca fuliginea); test: Control test on powdery mildew of cucumbers, spray, control value from severity index; format: in vivo; conditions: 10 ppm
# Protocol: (§5) Insecticidal Test on Cucumber Moth (Diaphania indica) and Control Test on Powdery Mildew (Sphaerotheca fuliginea) of Cucumbers
# (§6) A liquid chemical which was prepared to the prescribed concentration was sufficiently sprayed on cucumbers (cultivar: sagami-hanpaku) cultured in a greenhouse. After 7 days from spraying, leaves were cut off and put into a plastic cup (diameter: 10 cm, height: 10 cm) along with 5 of second-stage larvae of Diaphania indica, and the mortality was examined 4 days thereafter. Furthermore, 1 day after spraying, the leaves of cucumbers which were previously arranged to be infected by pathogen were uniformly wiped with Sphaerotheca fuliginea thereon using a paintbrush for inoculation and examined after 10 days thereafter. The area occupied by lesion per leaf of cucumber was examined in accordance with the following index, and the control value was calculated from the average severity index of each plot according to the following equation (two replications).
# Severity Index • 0: No lesion • 1: Lesion area was not more than 5% • 2: Lesion area was from 6 to 25% • 3: Lesion area was from 26 to 50% • 4: Lesion area was not less than 51% Control Value=(1−average severity in the treated plot/average severity in the untreated plot)×100
# [8] = tested on: Common Straight Swift Butterfly (Parnara guttata); test: Control test on common straight swift butterfly of paddy rice, powder spray, number of insects after 20 days (Test Example 8); format: in vivo; conditions: 20 gai/10a; 20 days after spraying
# [9] = tested on: Oriental Fruit Moth (Grapholita molesta); test: Control test on oriental fruit moth of pear, spray, rate of infected fruit after 40 days; format: in vivo; conditions: 50 ppm; 40 days after spraying
# Protocol: as §3, §4
# [10] = tested on: Clubroot (Plasmodiophora brassicae); test: Control test on clubroot of cabbage, soil treatment, control value after 60 days; format: in vivo; conditions: 100 gai/10a; 60 days after treatment
# Protocol: (§7) Control Test on Turnip Moth (Agrotis segetum) and Clubroot (Plasmodiophora brassicae) of Cabbage due to Soil Treatment
# (§8) A powder in a prescribed amount was mixed to soil and cabbages (cultivar: shiki-kaku) cultured on a cell medium were planted out. After 7 days from the treatment, the number of infected stumps due to Agrotis segetum was examined and the rate of infected stumps was calculated. Furthermore, after 60 days from the treatment, stumps were picked out, and lesion formation of Plasmodiophora brassicase was examined according to the degrees of severity. The control value was calculated from the average severity index of each plot according to the following equation. In the Table, gai represents the amount of active ingredients (g).
# Severity Index • 0: No clubroot attached • 1: Clubroot was attached at a portion of from 1 to 25% of the whole root • 2: Clubroot was attached at a portion of from 25 to 50% of the whole root • 3: Clubroot was attached at a portion of from 50 to 75% of the whole root • 4: Clubroot was attached at a portion of from 75% or more of the whole root Control Value=(1−average severity in the treated plot/average severity in the untreated plot)×100
# [11] = tested on: Resistant Cotton Melon Aphid (Aphis gossypii); format: in vivo; conditions: 3 ppm, foliar spray on cucumber, 5 days after spraying
# [12] = tested on: Cucumber Moth (Diaphania indica); test: Insecticidal test on cucumber moth, sprayed cucumber leaves, mortality; format: in vivo; conditions: 10 ppm
# Protocol: as §5, §6
# [13] = tested on: 2-spotted Spider Mite (Tetranychus urticae); test: Insecticidal test on 2-spotted spider mite, kidney bean leaf disc with eggs, hatchability of larvae after 6 days; format: in vivo; conditions: 50 ppm; 6 days after spraying
# Protocol: Insecticidal Test on 2-spotted Spider Mite (Tetranychus urticae)
# A plastic cup having a diameter of 8 cm was filled with water and covered by a lid with a hole having a diameter of 1 cm. Absorbent cotton was put on the top of the lid and dropped into water from the lid such that the absorbent cotton was always in a wet state due to a capillary phenomenon. A leaf disc having a diameter of 2 cm was prepared with primary leaves of kidney beans (cultivar: Green top) and placed on the aforementioned absorbent cotton. 4 adult female insects of Tetranychus urticae were inoculated thereon. Next day, the adult female insects were removed, and then the number of insect egg was examined. A liquid chemical which was prepared to the prescribed concentration was sprayed by using a vertical sprayer. After spraying, the resulting cup was allowed to stand in an isothermal chamber maintained at 25 degree centigrade. After 6 days from spraying, the number of hatched larvae that survived on the leaf disc was examined and the hatchability of larvae was calculated (two replications of one concentration per chemical).
# [14] = tested on: Tiger Moth (Trichoplusia ni); test: Insecticidal test on tiger moth, cabbage leaf dip, mortality after 6 days; format: in vivo; conditions: 0.5 ppm; 6 days after treatment
# Protocol: Insecticidal Test on Tiger Moth (Trichoplusia ni)
# Cut leaves of cabbages (cultivar: shiki-kaku) were immersed in a liquid chemical which was diluted and prepared to the prescribed concentration for 30 seconds, air-dried, and then put into a plastic vessel having a diameter of 9 cm. Each of 10 second-stage insects of Trichoplusia ni was inoculated and the resulting vessel was allowed to stand in an isothermal chamber maintained at 25 degree centigrade. After 6 days from the treatment, the number of surviving insects was examined and the mortality was calculated (two replications of 10 insects per plot).
# [15] = tested on: Turnip Moth (Agrotis segetum); test: Control test on turnip moth of cabbage, soil treatment, rate of infected stumps after 7 days; format: in vivo; conditions: 100 gai/10a; 7 days after treatment
# Protocol: as §7, §8
# [16] = tested on: Rice Leafroller (Cnaphalocrocis medinalis); test: Control test on rice leafroller, nursery box application of paddy rice, infected leaf rate after 50 days; format: in vivo; conditions: 5 gai/box; 50 days after transplantation
# Protocol: (§9) Control Test on Small Brown Planthopper (Laodelphax striatellus) and Rice Leafroller (Cnaphalocrocis medinalis) on Nursery Box Application of Paddy Rice
# (§10) Rice (cultivar: Nihonbare) cultured in a nursery box was treated with 50 g of a granule formulation per box, and then transplanted to the rice field. For the control effect against Laodelphax striatellus, the number of parasitic insects was examined for 30 stumps per plot after 40 days and 60 days from the transplantation. In addition, for the control effect against Cnaphalocrocis medinalis, the number of infected leaves was examined for 100 stumps per plot after 50 days from the transplantation, and the infected leaf rate was calculated. In the Table, gai represents the amount of active ingredients (g).
# [17] = tested on: Rice Blast (Pyricularia oryzae); format: in vivo; conditions: in vivo; remark: listed apart in the source
# [18] = tested on: Rice Striped Stem Borer (Chilo suppressalis); conditions: 5 gai/box
# [19] = tested on: Small Brown Planthopper (Laodelphax striatellus); test: Control test on small brown planthopper, nursery box application of paddy rice, number of parasitic insects after 40 and 60 days; format: in vivo; conditions: 5 gai/box
# Protocol: as §9, §10
Compound,Number of insects (number/100 stumps) [1] [number/100 stumps],Pyricularia oryzae Control value [2],Control rate (%) [3] [%],Venturia nashicola Severity index [4],Rate of infected stumps (%) [5] [%],Mortality (%) [6] [%],Sphaerotheca fuliginea Control value [7],Number (insects/100 stumps) [8] [insects/100 stumps],Grapholita molesta Infected fruit rate (%) [9] [%],Plasmodiophora brassicae Control value [10],Control rate (%) [11] [%],Diaphania indica Mortality (%) [12] [%],Hatchability of larvae (%) [13] [%],Mortality (%) [14] [%],Agrotis segetum Infected stump rate (%) [15] [%],Cnaphalocrocis medinalis Infected leaf rate (%) [16] [%],Pyricularia oryzae Control value [17],Chilo suppressalis Mortality (%) [18] [%],Laodelphax striatellus Number of parasitic insects/30 stumps ([19]; 40 days) [insects/30 stumps],Laodelphax striatellus Number of parasitic insects/30 stumps ([19]; 60 days) [insects/30 stumps]
Cc1cc(C(F)(C(F)(F)F)C(F)(F)F)cc(C)c1NC(=O)c1cccc(N(C)C(=O)c2ccccc2)c1F [Compound 1208],1,5,20,52.4,99,10,0,1,1.9,9,18,95,78,75,2.8,–,–,–,–,–
Cc1cc(C(F)(C(F)(F)F)C(F)(F)F)cc(C)c1NC(=O)c1cccc(N(C)C(=O)c2cccnc2Cl)c1F [Compound 1245],2,0,12,51.6,98,5,0,2,2.8,6,15,90,85,70,2.8,0.32,0,95,82,140
